pIC50: −log10 of the molar value. Structures can show the parent of a compound that is named as a salt.
target: T1, HCV polymerase (Hepatitis C virus genotype 1b, UniProt P26663); experiment: biochemical; parameters: species or system HCV BK strain
T1 construct: a region encoding NS5B (J Virol 1991 March, 65(3), 1105-13, 544 amino acids after deletion of 47 amino acids on the C-terminal); 6xHis (C); made in house; host or cells: Escherichia coli
How it was run: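 Recombinant HCV BK-strain NS5B (C-terminal 47 aa deleted, His6-tagged, E. coli), 0.5 μg/ml, run with 5 μg/ml in vitro-transcribed RNA template (polyU/3′X), ATP/GTP/CTP 50 μM, UTP 2 μM plus [3H]UTP, pH 7.5, 25° C, 90 min. TCA-precipitated RNA counted by scintillation; IC50 from activity with vs without compound.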

T1 sequence (P26663 2420-2963): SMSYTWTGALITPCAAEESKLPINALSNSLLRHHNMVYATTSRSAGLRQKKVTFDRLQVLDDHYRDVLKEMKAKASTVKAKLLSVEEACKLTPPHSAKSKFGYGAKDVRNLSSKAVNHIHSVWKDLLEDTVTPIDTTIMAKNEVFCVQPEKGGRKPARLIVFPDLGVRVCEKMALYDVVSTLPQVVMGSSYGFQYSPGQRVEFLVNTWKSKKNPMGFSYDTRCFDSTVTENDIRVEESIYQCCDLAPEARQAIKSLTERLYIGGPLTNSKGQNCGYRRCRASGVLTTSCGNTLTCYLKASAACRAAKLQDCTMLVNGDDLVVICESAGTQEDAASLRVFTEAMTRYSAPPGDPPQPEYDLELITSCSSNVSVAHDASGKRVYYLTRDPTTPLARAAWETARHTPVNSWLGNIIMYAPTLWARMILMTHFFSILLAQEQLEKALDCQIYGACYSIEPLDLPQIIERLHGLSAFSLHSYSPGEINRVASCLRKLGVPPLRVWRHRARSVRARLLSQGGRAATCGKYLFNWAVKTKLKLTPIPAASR

Row | Structure (SMILES) | pIC50
1 | CC(C)(NC(=O)c1ccc2c(C3CCCCC3)c3n(c2c1)CCOc1ccccc1-3)c1nc2ccccc2n1CC(=O)O [Example 2-312, (2-{1-[(12-cyclohexyl-6,7-dihydro-5-oxa-7a-azadibenzo[a,e]azulene-9-carbonyl)amino]-1-methylethyl}benzimidazol-1-yl)acetic acid] | > 7.00
2 | COC(=O)c1ccc2nc(C3(NC(=O)c4ccc5c(C6CCCCC6)c6n(c5c4)CCOc4ccccc4-6)CCN(C)CC3)[nH]c2c1 [Example 2-313, methyl 2-{4-[(12-cyclohexyl-6,7-dihydro-5-oxa-7a-azadibenzo[a,e]azulene-9-carbonyl)amino]-1-methylpiperidin-4-yl]-3H-benzimidazole-5-carboxylate] | > 7.00
3 | COC[C@H](Cc1ccc(O)cc1)NC(=O)c1ccc2c(C3CCCCC3)c3n(c2c1)CCOc1cc(OC)ccc1-3 [Example 2-314, N—[(S)-1-(4-hydroxybenzyl)-2-methoxyethyl]-12-cyclohexyl-3-methoxy-6,7-dihydro-5-oxa-7a-azadibenzo[a,e]azulene-9-carboxamide] | > 7.00
4 | COC(=O)C(Cc1ccc(O)c(F)c1)NC(=O)c1ccc2c(C3CCCCC3)c3n(c2c1)CCOc1cc(OC)ccc1-3 (stereo not drawn) [Example 2-315, methyl 2-[(12-cyclohexyl-3-methoxy-6,7-dihydro-5-oxa-7a-azadibenzo[a,e]azulene-9-carbonyl)amino]-3-(3-fluoro-4-hydroxyphenyl)propionate] | > 7.00
5 | COC(=O)[C@H](Cc1c[nH]c2ccc(O)cc12)NC(=O)c1ccc2c(C3CCCCC3)c3n(c2c1)CCOc1cc(OC)ccc1-3 [Example 2-316, methyl (S)-2-[(12-cyclohexyl-3-methoxy-6,7-dihydro-5-oxa-7a-azadibenzo[a,e]azulene-9-carbonyl)amino]-3-(5-hydroxy-1H-indol-3-yl)propionate] | > 7.00
6 | COC(=O)[C@H](Cc1ccc(NC(=O)OCc2ccccc2)cc1)NC(=O)c1ccc2c(C3CCCCC3)c3n(c2c1)CCOc1cc(OC)ccc1-3 [Example 2-317, methyl (S)-3-(4-benzyloxycarbonylaminophenyl)-2-[(12-cyclohexyl-3-methoxy-6,7-dihydro-5-oxa-7a-azadibenzo[a,e]azulene-9-carbonyl)amino]propionate] | > 7.00
7 | COc1ccc2c(c1)OCCn1c-2c(C2CCCCC2)c2ccc(C(=O)N[C@@H](Cc3ccc(NC(=O)OCc4ccccc4)cc3)C(=O)O)cc21 [Example 2-318, (S)-3-(4-benzyloxycarbonylaminophenyl)-2-[(12-cyclohexyl-3-methoxy-6,7-dihydro-5-oxa-7a-azadibenzo[a,e]azulene-9-carbonyl)amino]propionic acid] | > 7.00
8 | COC(=O)[C@H](Cc1ccc(N)cc1)NC(=O)c1ccc2c(C3CCCCC3)c3n(c2c1)CCOc1cc(OC)ccc1-3 [Example 2-319, methyl (S)-3-(4-aminophenyl)-2-[(12-cyclohexyl-3-methoxy-6,7-dihydro-5-oxa-7a-azadibenzo[a,e]azulene-9-carbonyl)amino]propionate] | > 7.00
9 | COc1ccc2c(c1)OCCn1c-2c(C2CCCCC2)c2ccc(C(=O)N[C@@H](Cc3ccc(N)cc3)C(=O)O)cc21 [Example 2-320, (S)-3-(4-aminophenyl)-2-[(12-cyclohexyl-3-methoxy-6,7-dihydro-5-oxa-7a-azadibenzo[a,e]azulene-9-carbonyl)amino]propionic acid] | > 7.00
10 | CC(C)(C)OC(=O)NC1CCN(C(=O)C(C)(C)NC(=O)c2ccc3c(C4CCCCC4)c4n(c3c2)CCOc2ccccc2-4)CC1 [Example 2-321, tert-butyl (1-{2-[(12-cyclohexyl-6,7-dihydro-5-oxa-7a-azadibenzo[a,e]azulene-9-carbonyl)amino]-2-methylpropionyl)piperidin-4-yl)carbamate] | > 7.00
11 | CC(C)(NC(=O)c1ccc2c(C3CCCCC3)c3n(c2c1)CCOc1ccccc1-3)C(=O)N1CCC(O)C1 (stereo not drawn) [Example 2-322, N-[2-(3-hydroxypyrrolidin-1-yl)-1,1-dimethyl-2-oxoethyl]-12-cyclohexyl-6,7-dihydro-5-oxa-7a-azadibenzo[a,e]azulene-9-carboxamide] | > 7.00
12 | COCc1cccc(-c2cccc3c2OCCn2c-3c(C3CCCCC3)c3ccc(C(=O)O)cc32)c1 [Example 2-323, 12-cyclohexyl-4-(3-methoxymethylphenyl)-6,7-dihydro-5-oxa-7a-azadibenzo[a,e]azulene-9-carboxylic acid] | > 7.00
13 | O=C(O)c1ccc2c(C3CCCCC3)c3n(c2c1)CCOc1c(Nc2ccccc2)cccc1-3 [Example 2-324, 12-cyclohexyl-4-phenylamino-6,7-dihydro-5-oxa-7a-azadibenzo[a,e]azulene-9-carboxylic acid] | > 7.00
14 | O=C(O)c1ccc2c(C3CCCCC3)c3n(c2c1)CCOc1c(-c2ccccc2CO)cccc1-3 [Example 2-325, 12-cyclohexyl-4-(2-hydroxymethylphenyl)-6,7-dihydro-5-oxa-7a-azadibenzo[a,e]azulene-9-carboxylic acid] | > 7.00
15 | COCc1ccccc1-c1cccc2c1OCCn1c-2c(C2CCCCC2)c2ccc(C(=O)O)cc21 [Example 2-327, 12-cyclohexyl-4-(2-methoxymethylphenyl)-6,7-dihydro-5-oxa-7a-azadibenzo[a,e]azulene-9-carboxylic acid] | > 7.00
16 | CN(C)Cc1cccc(-c2cccc3c2OCCn2c-3c(C3CCCCC3)c3ccc(C(=O)O)cc32)c1 [Example 2-328, 12-cyclohexyl-4-(3-dimethylaminomethylphenyl)-6,7-dihydro-5-oxa-7a-azadibenzo[a,e]azulene-9-carboxylic acid monohydrochloride] | > 7.00
17 | CCOC(=O)c1ccc2c(c1)nc(C(C)(C)NC(=O)c1ccc3c(C4CCCCC4)c4n(c3c1)CCOc1ccccc1-4)n2C [Example 2-329, ethyl 2-{1-[(12-cyclohexyl-6,7-dihydro-5-oxa-7a-azadibenzo[a,e]azulene-9-carbonyl)amino]-1-methylethyl}-1-methyl-1H-benzimidazole-5-carboxylate] | > 7.00
18 | Cn1c(C(C)(C)NC(=O)c2ccc3c(C4CCCCC4)c4n(c3c2)CCOc2ccccc2-4)nc2cc(C(=O)O)ccc21 [Example 2-330, 2-{1-[(12-cyclohexyl-6,7-dihydro-5-oxa-7a-azadibenzo[a,e]azulene-9-carbonyl)amino]-1-methylethyl}-1-methyl-1H-benzimidazole-5-carboxylic acid] | > 7.00
19 | COC(=O)c1cc2nc(C(C)(C)NC(=O)c3ccc4c(C5CCCCC5)c5n(c4c3)CCOc3cc(OC)ccc3-5)[nH]c2cc1OC [Example 2-331, methyl 2-{1-[(12-cyclohexyl-3-methoxy-6,7-dihydro-5-oxa-7a-azadibenzo[a,e]azulene-9-carbonyl)amino]-1-methylethyl}-6-methoxy-1H-benzimidazole-5-carboxylate] | > 7.00
20 | COc1ccc2c(c1)OCCn1c-2c(C2CCCCC2)c2ccc(C(=O)NC(C)(C)c3nc4ccc(C(=O)O)cc4[nH]3)cc21 [Example 2-332, 2-{1-[(12-cyclohexyl-3-methoxy-6,7-dihydro-5-oxa-7a-azadibenzo[a,e]azulene-9-carbonyl)amino]-1-methylethyl}-3H-benzimidazole-5-carboxylic acid] | > 7.00
21 | CCN(CCCCOC)C(=O)C(C)(C)NC(=O)c1ccc2c(C3CCCCC3)c3n(c2c1)CCOc1ccccc1-3 [Example 2-333, N-{1-[N-ethyl-N-(4-methoxybutyl)carbamoyl]-1-methylethyl}-12-cyclohexyl-6,7-dihydro-5-oxa-7a-azadibenzo[a,e]azulene-9-carboxamide] | > 7.00
22 | CC(=O)NC1CCN(C(=O)C(C)(C)NC(=O)c2ccc3c(C4CCCCC4)c4n(c3c2)CCOc2ccccc2-4)CC1 [Example 2-334, N-[2-(4-acetylaminopiperidin-1-yl)-1,1-dimethyl-2-oxoethyl]-12-cyclohexyl-6,7-dihydro-5-oxa-7a-azadibenzo[a,e]azulene-9-carboxamide] | > 7.00
23 | CC(C)(NC(=O)c1ccc2c(C3CCCCC3)c3n(c2c1)CCOc1ccccc1-3)C(=O)N1CCC(NS(C)(=O)=O)CC1 [Example 2-335, N-[2-(4-methanesulfonylaminopiperidin-1-yl)-1,1-dimethyl-2-oxoethyl]-12-cyclohexyl-6,7-dihydro-5-oxa-7a-azadibenzo[a,e]azulene-9-carboxamide] | > 7.00
24 | COC(=O)c1ccc2nc(C(C)(C)NC(=O)c3ccc4c(C5CCCCC5)c5n(c4c3)CCOc3ccccc3-5)n(C)c2c1 [Example 2-336, methyl 2-{1-[(12-cyclohexyl-6,7-dihydro-5-oxa-7a-azadibenzo[a,e]azulene-9-carbonyl)amino]-1-methylethyl}-3-methyl-3H-benzimidazole-5-carboxylate] | > 7.00
25 | Cn1c(C(C)(C)NC(=O)c2ccc3c(C4CCCCC4)c4n(c3c2)CCOc2ccccc2-4)nc2ccc(C(=O)O)cc21 [Example 2-337, 2-{1-[(12-cyclohexyl-6,7-dihydro-5-oxa-7a-azadibenzo[a,e]azulene-9-carbonyl)amino]-1-methylethyl}-3-methyl-3H-benzimidazole-5-carboxylic acid] | > 7.00
26 | COC(=O)[C@H](Cc1ccc(NC(C)=O)cc1)NC(=O)c1ccc2c(C3CCCCC3)c3n(c2c1)CCOc1cc(OC)ccc1-3 [Example 2-338, methyl (S)-3-(4-acetylaminophenyl)-2-[(12-cyclohexyl-3-methoxy-6,7-dihydro-5-oxa-7a-azadibenzo[a,e]azulene-9-carbonyl)amino]propionate] | > 7.00
27 | COC(=O)[C@H](Cc1ccc(NS(C)(=O)=O)cc1)NC(=O)c1ccc2c(C3CCCCC3)c3n(c2c1)CCOc1cc(OC)ccc1-3 [Example 2-339, methyl (S)-2-[(12-cyclohexyl-3-methoxy-6,7-dihydro-5-oxa-7a-azadibenzo[a,e]azulene-9-carbonyl)amino]-3-(4-methanesulfonylaminophenyl)propionate] | > 7.00

From patent US20070049593A1 (priority 2004, published 2007)
